In brackets after ≈: the same amount, converted by molar mass. Entries after “also recorded” stand apart in the source; their conditions may differ.
Legend:
Assay type in all cases: cell-based
[1] = tested on: primary porcine hepatocytes; assay: Cell viability, Neutral red assay; details: S. suis 10^4 CFU/mL in combination with inhibitor 50 µM, 24 h
Description: Porcine cryopreserved primary hepatocytes were obtained from Primacyt Cell Culture Company (Schwerin, Germany). Lonza Group Ltd. (Biocenter Ltd., Szeged, Hungary) supplied the thawing, plating, and maintenance media. The cytotoxic effects of inhibitors MI-432, MI-471, and MI-476 were tested on the viability of primary hepatocytes using the NR method. The hepatocytes were cultivated on a 96-well plate for 24 h, followed by incubation with the inhibitors at 0, 50, and 100 µM for an additional 24 h. Only cell maintenance medium was used to incubate the control cells. The plate underwent incubation together with NR dye for 2 h. Hepatocyte viability was recorded at 540 nm with a SpectraMax iD3 microplate reader.

[2] = tested on: Pseudomonas (P.) aeruginosa (ATCC 27853); assay: MIC measurement (broth microdilution); details: source ATCC, 18–24 h at 37 °C
[3] = tested on: Staphylococcus (S.) aureus (ATCC 10832); assay: MIC measurement (broth microdilution); details: source ATCC, 18–24 h at 37 °C, read-out: MIC
[4] = tested on: Salmonella (S.) enterica (clinical isolate); assay: MIC measurement (broth microdilution); details: source 204/22, 18–24 h at 37 °C
Source text: Bacterial strains used in this study were as follows: S. suis serotype 2 (ATCC 958242) Staphylococcus (S.) aureus (ATCC 10832), Escherichia (E.) coli (ATCC 11775), Pseudomonas (P.) aeruginosa (ATCC 27853), Pasteurella (P.) multocida (clinical isolate), Burkholderia (B.) cepacia (clinical isolate), Salmonella (S.) enterica (clinical isolate), and Enterococcus (E.) faecalis (clinical isolate). Of the clinical isolates used in this study, P. multocida is of porcine origin, B. cepacia is of human origin, and S. enterica and E. faecalis are of poultry origin. The bacterial strains were stored in the Microbiology Laboratory of the University of Veterinary Medicine, Budapest, at a temperature of −80 °C. Bacterial strains were inoculated the day before the test in 5 mL of Cation-Adjusted Mueller–Hinton Broth (CAMHB) and incubated for 18–24 h at 37 °C. The initial inoculum concentration used for the MIC assay was 5 × 10^5/mL. All wells except the first column of the working plates were filled with 90 µL CAMHB. A stock solution of inhibitors at 800 µM was then prepared, 180 µL of which was measured into the first column of plates and used to prepare a 2-based dilution on 96-well plates. After the 10th column, the tips were discarded with the 90 µL excess solution so that each column contained 90 µL of solution. Each bacterial strain was tested in a single row on the working plates. A bacterial suspension diluted to 25× was prepared on an auxiliary plate for bacterial inoculation by loading 240 µL of TSB per column of plates and adding 10–10 µL of bacterial strain suspension per well. In the next step, the isolated bacterial strains were inoculated onto the plates. Starting from column 11 (positive control) of the plates containing dilution row 2, 10 µL of bacterial suspension was added to each well, working backward. Column 11 served as a positive control (containing only bacterial suspension and broth), while column 12 served as a negative control (containing only broth). The microplates were then incubated at 37 °C for 18–24 h, and the MIC values were assessed in comparison to positive controls.

[5] = tested on: Escherichia (E.) coli (ATCC 11775); assay: MIC measurement (broth microdilution); details: source ATCC, 18–24 h at 37 °C

SMILES	cell viability [1]	MIC [2]	MIC [3]	MIC [4]	MIC [5]
N=C(N)c1cccc(C[C@H](NS(=O)(=O)c2cccc(-c3ccc(Cl)cc3Cl)c2)C(=O)N2CCC(CN)CC2)c1 [MI-476]	did not deteriorate cell viability; also recorded: effectively suppressed	> 800 µM	100 µM (≈ 58.9 µg/mL)	> 800 µM	> 800 µM
N=C(N)c1cccc(C[C@H](NS(=O)(=O)c2cccc(-c3ccc(Cl)cc3Cl)c2)C(=O)N2CCC(N)CC2)c1 [MI-471]	–	> 800 µM	100 µM (≈ 57.5 µg/mL)	> 800 µM	> 800 µM

Source: PMC11048155, “Antiviral Drug Candidate Repositioning for Streptococcus suis Infection in Non-Tumorigenic Cell Models” (Biomedicines, 2024)
